# Results as given in article PMC6325219, “Preclinical Characterization of NVR 3-778, a First-in-Class Capsid Assembly Modulator against Hepatitis B Virus” (Antimicrobial Agents and Chemotherapy, 2018).
# Read-outs that look alike come from different tables or passages of the source. Marks after values point to notes of the source that are not given here.
# Key:
# [1] = Oral bioavailability and pharmacokinetics in beagle dogs; assay type: in vivo; conditions: for AUC(0-inf): read-out: AUC0–inf (mean)
# Procedure: After a 7-day washout period, the same two dogs were administered NVR 3-778 by a single oral gavage of the same formulation at 1.5 mg/kg. Blood samples were collected at 0 (predose), 2 min (for the i.v. group only), 5 min, 15 min, and 0.5, 1, 3, 6, 9, and 24 h postdose. The concentration of NVR 3-778 in plasma samples was determined using LC-MS/MS methods.
# [2] = test system: HBV core protein variant T109I; experiment: microbe, parasite or virus in culture
# Excerpt: (§1) Plasmids containing HBV DNA with rtN236T, rtA181V, rtA181V/N236T, and rtL180M/M204V/N236T were generated using the GT B WT or rtL180M/M204V DNA-containing plasmids and site-directed mutagenesis (Agilent Technologies). A panel of nine different HBV core variants (cW102G, cW102R, cI105V, cI105L, cI105T, cT109S, cT109M, cT109I, and cY118F) was generated, also using the GT B WT DNA-containing plasmid and site-directed mutagenesis. The full-length genome from all plasmids was sequenced to confirm that only the intended nucleotide change(s) was present. Finally, HBV sequences from genotypes A (GenBank accession number AF305422), C (GenBank accession number AB033550), D (GenBank accession number V01460), E (GenBank accession number AB274971), F (GenBank accession number AB036912), G (GenBank accession number AF160501), and H (GenBank accession number AB375159) were gene synthesized as 1.1 times the genome length together with part of the CMV promoter at the 5′ end. The gene-synthesized piece was validated by sequencing and subcloned into the pCMV-HBV plasmid using the restriction sites SalI and NdeI (Genewiz, USA).
# (§2) HepG2 cells were seeded in 96-well plates at a density of 20,000 cells/well and allowed to attach overnight at 37°C in 5% CO2. Cells were cotransfected with the HBV plasmids (100 ng/well) and a Gaussia expression plasmid (10 ng/well) (Thermo Scientific) using the Lipofectamine LTX Plus transfection reagent (Life Technologies). Transfection mixtures were removed after overnight incubation, and cells were treated with serially diluted NVR 3-778 at a final dimethyl sulfoxide (DMSO) concentration of 0.5%. After 3 days of incubation with the compound, the supernatants were collected and secreted Gaussia luciferase was measured using a Gaussia Flash luciferase assay kit (Thermo Scientific). Cells were lysed with 0.33% NP-40 (Thermo Scientific), and the cytoplasmic fractions were treated with 2 units of Turbo DNase (Invitrogen) and 10 units of S7 nuclease (Roche) in CutSmart buffer (New England Biolabs) containing 25 µM CaCl2 (G-Biosciences) at 37°C for 60 min, followed by inactivation of the enzymes at 75°C for 15 min. Samples were diluted into lysis buffer (Affymetrix) containing 2.5 µg proteinase K (Affymetrix) at 50°C for 40 min. Intracellular encapsidated HBV DNA was denatured for 30 min at 25°C in 0.2 M NaOH (Sigma) and incubated with HBV DNA probes designed to hybridize to the minus-strand HBV DNA (Affymetrix). The denatured DNA was subsequently detected using a QuantiGene assay kit, according to the branched DNA (bDNA) assay recommended by the manufacturer (Affymetrix).
# (§3) To determine percent inhibition, the mean background signal from wells containing only culture medium was subtracted from the signal for all other samples, and percent inhibition at each compound concentration was calculated by normalization to the signals for HepG2.2.15 cells treated with 0.5% DMSO. […] Both CalcuSyn and MacSynergy II (Ann Arbor, MI) software were used to evaluate the effect of compound combinations ([27]). After data analysis at the 95% confidence level, values of synergy or antagonism of <25 µM^2% were defined as insignificant, those between 25 and 50 µM^2% were defined as minor, those between 50 and 100 µM^2% were defined as moderate, and those of >100 µM^2% were defined as strong.
# [3] = test system: HBV core protein variant I105T; experiment: microbe, parasite or virus in culture
# Excerpt: as §1, §2, §3
# [4] = test system: HBV core protein variant Y118F; experiment: microbe, parasite or virus in culture
# Excerpt: as §1, §2, §3
# [5] = test system: HBV core protein variant T109M; experiment: microbe, parasite or virus in culture
# Excerpt: as §1, §2, §3
# plasma proteins = experiment: Plasma protein binding by equilibrium dialysis, human; assay type: in vitro ADME; conditions: 2 µM
# Excerpt: The binding of NVR 3-778 to the plasma proteins of mouse, rat, dog, monkey, and human was investigated by equilibrium dialysis.
# HBV rtA181V variant = experiment: microbe, parasite or virus in culture; assay type: cell-based, hepatitis B virus; conditions: ratio of mean EC50 against variant over WT HBV, HepG2 cells
# Excerpt: as §1, §2, §3
# [6] = dog, plasma, iv, single i.v. 0.5 mg/kg, two male beagle dogs
# [7] = dog, plasma, single oral gavage 1.5 mg/kg, two male beagle dogs
# [8] = ratio of mean EC50 for core variant over wild-type HBV
structure (smiles),measurement,setting,value
O=C(Nc1cc(F)c(F)c(F)c1)c1ccc(F)c(S(=O)(=O)N2CCC(O)CC2)c1 [NVR 3-778],clearance,[1]; [6],6.1 mL/min/kg
same,AUC(0-inf),[1]; [6],1380 ng·h/mL
same,half-life,"[1]; dog, plasma, iv, single i.v. 0.5 mg/kg, two male beagle dogs, read-out: Mean terminal half-life (converted)",4.1 h
same,Vd,"[1]; dog, plasma, iv, single i.v. 0.5 mg/kg, two male beagle dogs, read-out: Volume of distribution at steady state (Vss) (mean)",1.7 L/kg
same,Cmax,[1]; [7],560 ng/mL
same,AUC(0-inf),[1]; [7],3500 ng·h/mL
same,Circulating species in plasma,"[1]; dogs, oral gavage",predominant circulating molecule
same,bioavailability,"[1]; male, dog, plasma, oral 1.5 mg/kg versus i.v. 0.5 mg/kg, beagle dogs",84.6%
same,EC50,"[2]; Hepatitis B virus, HepG2, read-out: EC50, core variant T109I",150 ± 61 nM
same,"EC50 FC, T109I",[2]; [8],0.65 fold
same,EC50,"[3]; Hepatitis B virus, HepG2, read-out: EC50, core variant I105T",1500 ± 300 nM
same,"EC50 FC, I105T",[3]; [8],6.5 fold
same,EC50,"[4]; Hepatitis B virus, HepG2, read-out: EC50, core variant Y118F",1700 ± 700 nM
same,"EC50 FC, Y118F",[4]; [8],7.4 fold
same,EC50,"[5]; Hepatitis B virus, HepG2, read-out: EC50, core variant T109M",280 ± 130 nM
same,"EC50 FC, T109M",[5]; [8],1.2 fold
same,Mean percent binding to plasma proteins,plasma proteins,approximately 98%
same,"EC50 fold change, rtA181V",HBV rtA181V variant,0.82 ± 0.19^d fold
